Measured values reported in patent publication US20260262643A1, “HERBICIDAL BENZOXAZINES” (FMC CORPORATION, priority 2022, published 2026).

Tests used:
blackgrass [1] = assay: Test C postemergence; type: in vivo, Alopecurus myosuroides; settings: 10 days, 0 to 100 scale (0 no effect, 100 complete control)
Procedure, shortened: (§1)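 Greenhouse herbicide screen, 10-day duration. Test chemicals in solvent/surfactant blend were sprayed onto soil at sowing (pre) or onto 2–10 cm seedlings at one to two leaves (post); injury scored visually against controls, 0 no effect to 100 complete control.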

ducksalad = assay: Test D flooded paddy test; type: in vivo, Heteranthera limosa; settings: 250 g ai/ha, applied to paddy water, visual rating after 13 to 14 days, scale 0 to 100 (0 no effect, 100 complete control)
Procedure, shortened: (§2)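 Visual ratings from 0, meaning no effect, to 100, meaning complete control, were assigned against untreated controls 13 to 14 days after compounds were added to the floodwater of pots kept 3 cm deep, with plants at the 2-leaf stage.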

sedge, umbrella = assay: Test D flooded paddy test; type: in vivo, Cyperus difformis; settings: 250 g ai/ha, applied to paddy water, visual rating after 13 to 14 days, scale 0 to 100 (0 no effect, 100 complete control)
Procedure, shortened: as §2

pigweed, palmer [2] = assay: Test C postemergence; type: in vivo, Amaranthus palmeri; settings: 10 days, 0 to 100 scale (0 no effect, 100 complete control)
Procedure, shortened: as §1

oat, wild [3] = assay: Test C preemergence; type: in vivo, Avena fatua
Procedure, shortened: as §1

soybean [4] = assay: Test C postemergence; type: in vivo, Glycine max; settings: 10 days, 0 to 100 scale (0 no effect, 100 complete control)
Procedure, shortened: as §1

green foxtail [5] = assay: Test C preemergence; type: in vivo, Setaria viridis
Procedure, shortened: as §1

kochia [6] = assay: Test C postemergence; type: in vivo, Bassia scoparia; settings: 10 days, 0 to 100 scale (0 no effect, 100 complete control)
Procedure, shortened: as §1

horseweed = assay: Test C postemergence; type: in vivo, Erigeron canadensis; settings: 10 days, 0 to 100 scale (0 no effect, 100 complete control)
Procedure, shortened: as §1

soybean [7] = assay: Test C preemergence; type: in vivo, Glycine max
Procedure, shortened: as §1

wheat [8] = assay: Test C preemergence; type: in vivo, Triticum aestivum
Procedure, shortened: as §1

ryegrass, Italian [9] = assay: Test C preemergence; type: in vivo, Lolium multiflorum
Procedure, shortened: as §1

oat, wild [10] = assay: Test C postemergence; type: in vivo, Avena fatua; settings: 10 days, 0 to 100 scale (0 no effect, 100 complete control)
Procedure, shortened: as §1

ragweed [11] = assay: Test C postemergence; type: in vivo, Ambrosia artemisiifolia; settings: 10 days, 0 to 100 scale (0 no effect, 100 complete control)
Procedure, shortened: as §1

corn [12] = assay: Test C postemergence; type: in vivo, Zea mays; settings: 10 days, 0 to 100 scale (0 no effect, 100 complete control)
Procedure, shortened: as §1

barnyardgrass [13] = assay: Test C preemergence; type: in vivo, Echinochloa crusgalli
Procedure, shortened: as §1

corn [14] = assay: Test C preemergence; type: in vivo, Zea mays
Procedure, shortened: as §1

barnyardgrass [15] = assay: Test D flooded paddy test; type: in vivo, Echinochloa crus-galli; settings: 250 g ai/ha, applied to paddy water, visual rating after 13 to 14 days, scale 0 to 100 (0 no effect, 100 complete control)
Procedure, shortened: as §2

galium = assay: Test C postemergence; type: in vivo, Galium aparine; settings: 10 days, 0 to 100 scale (0 no effect, 100 complete control)
Procedure, shortened: as §1

kochia [16] = assay: Test C preemergence; type: in vivo, Bassia scoparia
Procedure, shortened: as §1

green foxtail [17] = assay: Test C postemergence; type: in vivo, Setaria viridis; settings: 10 days, 0 to 100 scale (0 no effect, 100 complete control)
Procedure, shortened: as §1

ryegrass, Italian [18] = assay: Test C postemergence; type: in vivo, Lolium multiflorum; settings: 10 days, 0 to 100 scale (0 no effect, 100 complete control)
Procedure, shortened: as §1

barnyardgrass [19] = assay: Test C postemergence; type: in vivo, Echinochloa crusgalli; settings: 10 days, 0 to 100 scale (0 no effect, 100 complete control)
Procedure, shortened: as §1

wheat [20] = assay: Test C postemergence; type: in vivo, Triticum aestivum; settings: 10 days, 0 to 100 scale (0 no effect, 100 complete control)
Procedure, shortened: as §1

blackgrass [21] = assay: Test C preemergence; type: in vivo, Alopecurus myosuroides
Procedure, shortened: as §1

pigweed, palmer [22] = assay: Test C preemergence; type: in vivo, Amaranthus palmeri
Procedure, shortened: as §1

rice = assay: Test D flooded paddy test; type: in vivo, Oryza sativa; settings: 250 g ai/ha, applied to paddy water, visual rating after 13 to 14 days, scale 0 to 100 (0 no effect, 100 complete control)
Procedure, shortened: as §2

ragweed [23] = assay: Test C preemergence; type: in vivo, Ambrosia artemisiifolia
Procedure, shortened: as §1

[24] = 500 g ai/ha, preemergence, 0 to 100 scale (0 no effect, 100 complete control)
[25] = Preemergence, 125 g ai/ha, 0 to 100 scale, 0 no effect, 100 complete control

With `COC(C)(C)c1ncn(-c2ccc(C)c(C(=O)N3C[C@H](C)Oc4c(Cl)cccc43)c2)n1` [Compound 343] the “Plant response rating, Blackgrass” value (blackgrass [1]; 500 g ai/ha, postemergence) was 90, the “Plant response rating, Blackgrass” value (blackgrass [1]; Postemergence, 125 g ai/ha) was 40 and the “Plant response rating, Ducksalad (Flood)” value (ducksalad) was 45. The “Plant response rating, Sedge, Umbrella (Flood)” value (sedge, umbrella) was 65, the “Plant response rating, Pigweed, Palmer” value (pigweed, palmer [2]; 500 g ai/ha, postemergence) was 100 and the “Plant response rating, Pigweed, Palmer” value (pigweed, palmer [2]; Postemergence, 125 g ai/ha) was 50. The “Oat, Wild plant response rating” value (oat, wild [3]; [24]) was 90, the “Plant response rating, Oat, Wild” value (oat, wild [3]; [25]) was 90 and the “Plant response rating, Soybean” value (soybean [4]; 500 g ai/ha, postemergence) was 100. For the same compound, the “Plant response rating, Soybean” value (soybean [4]; Postemergence, 125 g ai/ha) was 100, the “Foxtail, Green plant response rating” value (green foxtail [5]; [24]) was 100 and the “Plant response rating, Foxtail, Green” value (green foxtail [5]; [25]) was 100. For the same compound, the “Plant response rating, Kochia” value (kochia [6]; 500 g ai/ha, postemergence) was 90, the “Plant response rating, Kochia” value (kochia [6]; Postemergence, 125 g ai/ha) was 80 and the “Plant response rating, Horseweed” value (horseweed; 500 g ai/ha, postemergence) was 80. For the same compound, the “Plant response rating, Horseweed” value (horseweed; Postemergence, 125 g ai/ha) was 30, the “Soybean plant response rating” value (soybean [7]; [24]) was 100 and the “Plant response rating, Soybean” value (soybean [7]; [25]) was 30. For the same compound, the “Wheat plant response rating” value (wheat [8]; [24]) was 90, the “Plant response rating, Wheat” value (wheat [8]; [25]) was 30 and the “Ryegrass, Italian plant response rating” value (ryegrass, Italian [9]; [24]) was 100. For the same compound, the “Plant response rating, Ryegrass, Italian” value (ryegrass, Italian [9]; [25]) was 100, the “Plant response rating, Oat, Wild” value (oat, wild [10]; 500 g ai/ha, postemergence) was 90 and the “Plant response rating, Oat, Wild” value (oat, wild [10]; Postemergence, 125 g ai/ha) was 60. For the same compound, the “Plant response rating, Ragweed” value (ragweed [11]; 500 g ai/ha, postemergence) was 80, the “Plant response rating, Ragweed” value (ragweed [11]; Postemergence, 125 g ai/ha) was 60 and the “Plant response rating, Corn” value (corn [12]; 500 g ai/ha, postemergence) was 100. For the same compound, the “Plant response rating, Corn” value (corn [12]; Postemergence, 125 g ai/ha) was 90, the “Barnyardgrass plant response rating” value (barnyardgrass [13]; [24]) was 100 and the “Plant response rating, Barnyardgrass” value (barnyardgrass [13]; [25]) was 100. The “Corn plant response rating” value (corn [14]; [24]) was 60, the “Plant response rating, Corn” value (corn [14]; [25]) was 40 and the “Plant response rating, Barnyardgrass (Flood)” value (barnyardgrass [15]) was 35. The “Plant response rating, Galium” value (galium; 500 g ai/ha, postemergence) was 100, the “Plant response rating, Galium” value (galium; Postemergence, 125 g ai/ha) was 100 and the “Kochia plant response rating” value (kochia [16]; [24]) was 100. For the same compound, the “Plant response rating, Kochia” value (kochia [16]; [25]) was 90, the “Plant response rating, Foxtail, Green” value (green foxtail [17]; 500 g ai/ha, postemergence) was 90 and the “Plant response rating, Foxtail, Green” value (green foxtail [17]; Postemergence, 125 g ai/ha) was 50. For the same compound, the “Plant response rating, Ryegrass, Italian” value (ryegrass, Italian [18]; 500 g ai/ha, postemergence) was 90, the “Plant response rating, Ryegrass, Italian” value (ryegrass, Italian [18]; Postemergence, 125 g ai/ha) was 70 and the “Plant response rating, Barnyardgrass” value (barnyardgrass [19]; 500 g ai/ha, postemergence) was 70. The “Plant response rating, Barnyardgrass” value (barnyardgrass [19]; Postemergence, 125 g ai/ha) was 20, the “Plant response rating, Wheat” value (wheat [20]; 500 g ai/ha, postemergence) was 60 and the “Plant response rating, Wheat” value (wheat [20]; Postemergence, 125 g ai/ha) was 20. For the same compound, the “Blackgrass plant response rating” value (blackgrass [21]; [24]) was 90, the “Plant response rating, Blackgrass” value (blackgrass [21]; [25]) was 50 and the “Pigweed, Palmer plant response rating” value (pigweed, palmer [22]; [24]) was 100. For the same compound, the “Plant response rating, Pigweed, Palmer” value (pigweed, palmer [22]; [25]) was 100, the “Plant response rating, Rice (Flood)” value (rice) was 15 and the “Ragweed plant response rating” value (ragweed [23]; [24]) was 70. For the same compound, the “Plant response rating, Ragweed” value (ragweed [23]; [25]) was 30.
